Results taken from the kinase profiling compilation of Christmann-Franck et al. (2016).
Blank lines part the entries; values can stand above or below the molecule they belong to.

Legend:
Test in all cases: KINOMEscan competition binding
Conditions in all cases: compound 10.0 µM
[1] = system: ABL1 (human), P00519 [M351T]
[2] = target: AURKA (human) (UniProt O14965)
[3] = target: CAMK1G (human) (UniProt Q96NX5)
[4] = target: CDC42BPA (human) (UniProt Q5VT25)
[5] = target: CDKL3 (human) (UniProt Q8IVW4)
[6] = target: CaMK1 (human) (UniProt Q14012)
[7] = target: DAPK3 (human) (UniProt O43293)
[8] = target: DCLK1 (human) (UniProt O15075)
[9] = target: EIF2AK2 (human) (UniProt P19525)
[10] = target: EPHA5 (human) (UniProt P54756)
[11] = target: EPHB1 (human) (UniProt P54762)
[12] = target: FGFR3 (human) (UniProt P22607)
[13] = target: FLT4 (human) (UniProt P35916)
[14] = target: GRK7 (human) (UniProt Q8WTQ7)
[15] = target: HCK (human) (UniProt P08631)
[16] = target: IGF1R (human) (UniProt P08069)
[17] = target: INSR (human) (UniProt P06213)
[18] = target: JAK3 JH1 catalytic (human) (UniProt P52333)
[19] = target: MAP2K1 (human) (UniProt Q02750)
[20] = target: MAP2K4 (human) (UniProt P45985)
[21] = target: MAP2K6 (human) (UniProt P52564)
[22] = target: MAP3K10 (human) (UniProt Q02779)
[23] = target: MAP3K15 (human) (UniProt Q6ZN16)
[24] = target: MAPK13 (human) (UniProt O15264)
[25] = target: MAPK14 (human) (UniProt Q16539)
[26] = target: MARK1 (human) (UniProt Q9P0L2)
[27] = target: MARK4 (human) (UniProt Q96L34)
[28] = target: MKNK1 (human) (UniProt Q9BUB5)
[29] = target: MKNK2 (human) (UniProt Q9HBH9)
[30] = target: MYLK (human) (UniProt Q15746)
[31] = target: NTRK3 (human) (UniProt Q16288)
[32] = system: PIK3CA (human), P42336 [E545A]
[33] = target: PIK3CD (human) (UniProt O00329)
[34] = target: PRKACA (human) (UniProt P17612)
[35] = target: ROCK1 (human) (UniProt Q13464)
[36] = target: STK17A (human) (UniProt Q9UEE5)
[37] = target: TEK (human) (UniProt Q02763)
[38] = target: TNIK (human) (UniProt Q9UKE5)
[39] = target: TTK (human) (UniProt P33981)
[40] = target: ULK1 (human) (UniProt O75385)
[41] = target: ULK3 (human) (UniProt Q6PHR2)
[42] = target: MAP4K4 (human) (UniProt O95819)

DCLK1 (human), sequence (O15075 whole entry, looked up): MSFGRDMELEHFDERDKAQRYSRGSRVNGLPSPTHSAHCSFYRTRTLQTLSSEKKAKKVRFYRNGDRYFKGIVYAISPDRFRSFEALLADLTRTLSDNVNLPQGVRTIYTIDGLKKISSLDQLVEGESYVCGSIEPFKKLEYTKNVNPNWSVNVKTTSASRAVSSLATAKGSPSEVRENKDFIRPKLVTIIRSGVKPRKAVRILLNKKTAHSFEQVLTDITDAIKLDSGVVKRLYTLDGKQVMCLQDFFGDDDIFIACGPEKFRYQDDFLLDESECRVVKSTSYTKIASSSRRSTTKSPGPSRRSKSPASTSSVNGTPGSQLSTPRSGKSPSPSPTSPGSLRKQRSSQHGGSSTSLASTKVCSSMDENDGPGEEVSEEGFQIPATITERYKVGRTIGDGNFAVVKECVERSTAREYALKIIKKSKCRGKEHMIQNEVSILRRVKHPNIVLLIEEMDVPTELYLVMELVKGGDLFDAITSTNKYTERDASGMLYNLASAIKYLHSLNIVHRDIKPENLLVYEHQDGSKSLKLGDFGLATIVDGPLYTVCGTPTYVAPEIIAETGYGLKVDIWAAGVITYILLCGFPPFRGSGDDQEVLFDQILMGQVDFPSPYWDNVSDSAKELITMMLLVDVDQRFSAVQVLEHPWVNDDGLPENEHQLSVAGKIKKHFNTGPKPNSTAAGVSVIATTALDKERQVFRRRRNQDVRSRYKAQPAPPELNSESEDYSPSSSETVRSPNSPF
ULK1 (human), sequence (O75385 whole entry, looked up): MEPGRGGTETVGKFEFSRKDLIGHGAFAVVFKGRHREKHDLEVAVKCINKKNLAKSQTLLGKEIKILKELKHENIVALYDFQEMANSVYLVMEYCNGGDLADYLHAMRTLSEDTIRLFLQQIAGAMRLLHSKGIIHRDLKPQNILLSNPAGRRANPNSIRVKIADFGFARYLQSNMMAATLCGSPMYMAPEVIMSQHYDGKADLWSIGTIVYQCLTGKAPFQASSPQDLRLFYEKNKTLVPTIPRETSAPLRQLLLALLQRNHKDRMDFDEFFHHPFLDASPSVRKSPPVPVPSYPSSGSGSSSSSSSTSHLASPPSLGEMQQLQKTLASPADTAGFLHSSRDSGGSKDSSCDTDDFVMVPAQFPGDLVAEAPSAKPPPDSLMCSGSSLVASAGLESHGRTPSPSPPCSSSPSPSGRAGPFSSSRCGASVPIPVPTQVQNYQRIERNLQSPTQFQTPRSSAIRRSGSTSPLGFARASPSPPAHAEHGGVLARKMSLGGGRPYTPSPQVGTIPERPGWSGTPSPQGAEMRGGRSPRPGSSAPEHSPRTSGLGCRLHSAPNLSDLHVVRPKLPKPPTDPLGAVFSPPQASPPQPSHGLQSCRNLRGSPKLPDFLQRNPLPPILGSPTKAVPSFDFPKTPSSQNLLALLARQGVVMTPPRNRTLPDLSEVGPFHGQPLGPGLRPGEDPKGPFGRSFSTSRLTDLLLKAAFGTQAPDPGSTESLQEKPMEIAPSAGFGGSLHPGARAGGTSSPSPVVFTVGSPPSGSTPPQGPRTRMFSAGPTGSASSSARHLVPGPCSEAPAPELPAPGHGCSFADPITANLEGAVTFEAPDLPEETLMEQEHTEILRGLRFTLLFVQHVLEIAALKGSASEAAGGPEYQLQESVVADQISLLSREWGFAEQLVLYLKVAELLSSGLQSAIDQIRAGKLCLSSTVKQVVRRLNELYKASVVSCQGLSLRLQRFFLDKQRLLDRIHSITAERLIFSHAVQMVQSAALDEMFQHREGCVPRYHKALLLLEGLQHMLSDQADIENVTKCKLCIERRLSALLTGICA
MARK1 (human), sequence (Q9P0L2 whole entry, looked up): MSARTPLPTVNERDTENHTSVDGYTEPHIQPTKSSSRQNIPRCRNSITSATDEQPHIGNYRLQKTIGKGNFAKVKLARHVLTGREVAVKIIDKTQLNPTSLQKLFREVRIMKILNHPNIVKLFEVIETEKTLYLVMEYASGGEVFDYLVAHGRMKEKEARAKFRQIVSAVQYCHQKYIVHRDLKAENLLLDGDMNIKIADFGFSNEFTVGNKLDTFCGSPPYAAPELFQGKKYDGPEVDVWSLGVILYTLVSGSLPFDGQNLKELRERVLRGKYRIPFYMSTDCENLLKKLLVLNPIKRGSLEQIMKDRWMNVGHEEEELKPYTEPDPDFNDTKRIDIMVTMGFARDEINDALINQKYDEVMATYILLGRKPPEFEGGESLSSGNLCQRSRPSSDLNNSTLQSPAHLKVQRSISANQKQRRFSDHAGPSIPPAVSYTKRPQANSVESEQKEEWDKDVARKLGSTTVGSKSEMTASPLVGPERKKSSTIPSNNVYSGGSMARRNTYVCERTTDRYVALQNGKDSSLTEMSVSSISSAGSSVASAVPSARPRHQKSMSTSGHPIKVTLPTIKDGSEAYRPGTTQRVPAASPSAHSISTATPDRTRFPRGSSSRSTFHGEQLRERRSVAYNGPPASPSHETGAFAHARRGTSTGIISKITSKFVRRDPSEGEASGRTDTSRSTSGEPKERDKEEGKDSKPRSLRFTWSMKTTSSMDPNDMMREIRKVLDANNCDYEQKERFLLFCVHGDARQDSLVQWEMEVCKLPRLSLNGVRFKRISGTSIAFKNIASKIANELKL
ROCK1 (human), sequence (Q13464 whole entry, looked up): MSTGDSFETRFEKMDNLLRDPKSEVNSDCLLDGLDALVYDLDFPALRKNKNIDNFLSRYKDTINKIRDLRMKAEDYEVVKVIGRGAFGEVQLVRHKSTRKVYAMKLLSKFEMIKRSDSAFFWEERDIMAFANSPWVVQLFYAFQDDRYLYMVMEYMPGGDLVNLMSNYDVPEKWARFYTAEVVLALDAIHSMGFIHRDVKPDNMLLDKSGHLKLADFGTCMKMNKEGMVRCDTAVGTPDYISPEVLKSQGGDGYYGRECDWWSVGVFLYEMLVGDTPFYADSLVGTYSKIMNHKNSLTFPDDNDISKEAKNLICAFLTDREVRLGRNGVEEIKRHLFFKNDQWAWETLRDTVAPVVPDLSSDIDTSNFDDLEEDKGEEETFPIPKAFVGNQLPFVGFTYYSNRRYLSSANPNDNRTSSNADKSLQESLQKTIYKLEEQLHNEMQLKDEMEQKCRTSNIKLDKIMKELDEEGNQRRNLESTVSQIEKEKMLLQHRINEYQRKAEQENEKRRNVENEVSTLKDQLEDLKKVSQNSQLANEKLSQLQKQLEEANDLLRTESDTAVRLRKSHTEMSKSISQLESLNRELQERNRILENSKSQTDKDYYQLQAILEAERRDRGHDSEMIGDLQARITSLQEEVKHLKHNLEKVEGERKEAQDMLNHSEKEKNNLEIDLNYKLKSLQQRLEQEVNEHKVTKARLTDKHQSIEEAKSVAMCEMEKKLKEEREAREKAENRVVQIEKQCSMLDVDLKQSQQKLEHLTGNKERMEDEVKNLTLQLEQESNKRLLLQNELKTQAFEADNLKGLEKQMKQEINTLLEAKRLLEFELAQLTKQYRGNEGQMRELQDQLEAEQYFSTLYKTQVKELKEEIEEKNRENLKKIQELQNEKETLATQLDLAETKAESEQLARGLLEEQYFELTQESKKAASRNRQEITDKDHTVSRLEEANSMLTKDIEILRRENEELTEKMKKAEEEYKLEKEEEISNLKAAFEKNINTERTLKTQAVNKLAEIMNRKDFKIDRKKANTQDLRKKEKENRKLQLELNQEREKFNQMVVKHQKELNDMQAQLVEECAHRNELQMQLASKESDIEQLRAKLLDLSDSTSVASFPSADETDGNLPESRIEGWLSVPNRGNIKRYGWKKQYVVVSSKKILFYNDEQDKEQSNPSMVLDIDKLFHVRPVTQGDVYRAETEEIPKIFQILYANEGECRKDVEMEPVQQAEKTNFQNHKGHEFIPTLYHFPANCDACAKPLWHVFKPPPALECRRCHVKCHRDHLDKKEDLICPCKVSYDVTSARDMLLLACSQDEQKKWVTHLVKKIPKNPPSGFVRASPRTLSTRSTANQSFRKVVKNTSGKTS
EPHB1 (human), sequence (P54762 whole entry, looked up): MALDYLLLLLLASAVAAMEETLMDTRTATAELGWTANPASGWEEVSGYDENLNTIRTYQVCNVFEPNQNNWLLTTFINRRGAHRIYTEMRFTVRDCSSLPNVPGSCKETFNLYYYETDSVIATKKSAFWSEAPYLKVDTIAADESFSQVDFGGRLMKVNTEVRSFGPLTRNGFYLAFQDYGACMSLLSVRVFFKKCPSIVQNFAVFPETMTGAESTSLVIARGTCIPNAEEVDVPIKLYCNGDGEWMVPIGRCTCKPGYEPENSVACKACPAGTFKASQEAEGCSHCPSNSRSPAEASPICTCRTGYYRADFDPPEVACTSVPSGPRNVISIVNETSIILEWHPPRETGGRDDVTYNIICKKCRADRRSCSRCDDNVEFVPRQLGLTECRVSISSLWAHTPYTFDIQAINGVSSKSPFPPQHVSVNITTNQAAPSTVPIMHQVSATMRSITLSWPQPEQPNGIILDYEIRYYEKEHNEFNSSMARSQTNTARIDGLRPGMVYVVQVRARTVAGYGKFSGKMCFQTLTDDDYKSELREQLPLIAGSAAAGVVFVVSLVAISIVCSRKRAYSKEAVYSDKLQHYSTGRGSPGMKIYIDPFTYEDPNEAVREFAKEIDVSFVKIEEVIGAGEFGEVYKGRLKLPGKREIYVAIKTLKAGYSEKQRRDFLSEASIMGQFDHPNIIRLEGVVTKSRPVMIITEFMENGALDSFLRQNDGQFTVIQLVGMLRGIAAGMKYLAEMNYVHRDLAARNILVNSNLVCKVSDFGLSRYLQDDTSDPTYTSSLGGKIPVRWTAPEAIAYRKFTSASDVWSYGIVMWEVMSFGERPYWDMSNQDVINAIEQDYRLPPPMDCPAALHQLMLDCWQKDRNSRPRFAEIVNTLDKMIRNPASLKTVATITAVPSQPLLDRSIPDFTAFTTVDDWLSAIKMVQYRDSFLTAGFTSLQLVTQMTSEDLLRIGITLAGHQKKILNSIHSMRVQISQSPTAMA

kinase still bound, per cent of control [1]: 99%
kinase still bound, per cent of control [2]: 100%
kinase still bound, per cent of control [3]: 100%
kinase still bound, per cent of control [4]: 100%
kinase still bound, per cent of control [5]: 52%
kinase still bound, per cent of control [6]: 100%
kinase still bound, per cent of control [7]: 83%
kinase still bound, per cent of control [8]: 100%
kinase still bound, per cent of control [9]: 50%
kinase still bound, per cent of control [10]: 100%
kinase still bound, per cent of control [11]: 96%
kinase still bound, per cent of control [12]: 100%
kinase still bound, per cent of control [13]: 100%
kinase still bound, per cent of control [14]: 91%
kinase still bound, per cent of control [15]: 100%
kinase still bound, per cent of control [16]: 100%
kinase still bound, per cent of control [17]: 100%
kinase still bound, per cent of control [18]: 100%
kinase still bound, per cent of control [19]: 100%
kinase still bound, per cent of control [20]: 70%
kinase still bound, per cent of control [21]: 73%
kinase still bound, per cent of control [22]: 76%
kinase still bound, per cent of control [23]: 100%
kinase still bound, per cent of control [24]: 100%
kinase still bound, per cent of control [25]: 98%
kinase still bound, per cent of control [26]: 91%
kinase still bound, per cent of control [27]: 100%
kinase still bound, per cent of control [28]: 100%
kinase still bound, per cent of control [29]: 82%
kinase still bound, per cent of control [30]: 59%
kinase still bound, per cent of control [31]: 100%
kinase still bound, per cent of control [32]: 100%
kinase still bound, per cent of control [33]: 93%
kinase still bound, per cent of control [34]: 100%
kinase still bound, per cent of control [35]: 85%
kinase still bound, per cent of control [36]: 85%
kinase still bound, per cent of control [37]: 100%
kinase still bound, per cent of control [38]: 96%
kinase still bound, per cent of control [39]: 86%
kinase still bound, per cent of control [40]: 94%
kinase still bound, per cent of control [41]: 100%
SMILES: Cc1cnc(-c2cnc(NCCNc3ccc(C#N)cn3)nc2-c2ccc(Cl)cc2Cl)[nH]1

kinase still bound, per cent of control [1]: 2.2%
kinase still bound, per cent of control [2]: 20%
kinase still bound, per cent of control [3]: 42%
kinase still bound, per cent of control [4]: 70%
kinase still bound, per cent of control [5]: 82%
kinase still bound, per cent of control [6]: 28%
kinase still bound, per cent of control [7]: 2.7%
kinase still bound, per cent of control [8]: 99%
kinase still bound, per cent of control [9]: 33%
kinase still bound, per cent of control [10]: 30%
kinase still bound, per cent of control [11]: 43%
kinase still bound, per cent of control [12]: 12%
kinase still bound, per cent of control [13]: 2.5%
kinase still bound, per cent of control [14]: 58%
kinase still bound, per cent of control [15]: 1.2%
kinase still bound, per cent of control [16]: 83%
kinase still bound, per cent of control [17]: 72%
kinase still bound, per cent of control [18]: 6.3%
kinase still bound, per cent of control [19]: 37%
kinase still bound, per cent of control [20]: 67%
kinase still bound, per cent of control [21]: 47%
kinase still bound, per cent of control [22]: 100%
kinase still bound, per cent of control [23]: 43%
kinase still bound, per cent of control [42]: 8%
kinase still bound, per cent of control [24]: 100%
kinase still bound, per cent of control [25]: 92%
kinase still bound, per cent of control [26]: 38%
kinase still bound, per cent of control [27]: 35%
kinase still bound, per cent of control [28]: 51%
kinase still bound, per cent of control [29]: 28%
kinase still bound, per cent of control [30]: 6.5%
kinase still bound, per cent of control [31]: 16%
kinase still bound, per cent of control [32]: 100%
kinase still bound, per cent of control [33]: 100%
kinase still bound, per cent of control [34]: 100%
kinase still bound, per cent of control [35]: 61%
kinase still bound, per cent of control [36]: 0%
kinase still bound, per cent of control [37]: 78%
kinase still bound, per cent of control [38]: 4.6%
kinase still bound, per cent of control [39]: 3.8%
kinase still bound, per cent of control [40]: 7.3%
kinase still bound, per cent of control [41]: 1.3%
SMILES: O=C1Nc2cc(Br)ccc2/C1=C1/Nc2ccccc2/C1=N\O

kinase still bound, per cent of control [1]: 63%
kinase still bound, per cent of control [2]: 84%
kinase still bound, per cent of control [3]: 100%
kinase still bound, per cent of control [4]: 100%
kinase still bound, per cent of control [5]: 76%
kinase still bound, per cent of control [6]: 100%
kinase still bound, per cent of control [7]: 81%
kinase still bound, per cent of control [8]: 100%
kinase still bound, per cent of control [9]: 76%
kinase still bound, per cent of control [10]: 100%
kinase still bound, per cent of control [11]: 85%
kinase still bound, per cent of control [12]: 100%
kinase still bound, per cent of control [13]: 100%
kinase still bound, per cent of control [14]: 100%
kinase still bound, per cent of control [15]: 100%
kinase still bound, per cent of control [16]: 100%
kinase still bound, per cent of control [18]: 100%
kinase still bound, per cent of control [19]: 100%
kinase still bound, per cent of control [20]: 79%
kinase still bound, per cent of control [21]: 98%
kinase still bound, per cent of control [22]: 87%
kinase still bound, per cent of control [23]: 100%
kinase still bound, per cent of control [42]: 92%
kinase still bound, per cent of control [24]: 94%
kinase still bound, per cent of control [25]: 100%
kinase still bound, per cent of control [26]: 100%
kinase still bound, per cent of control [27]: 100%
kinase still bound, per cent of control [28]: 100%
kinase still bound, per cent of control [29]: 100%
kinase still bound, per cent of control [30]: 100%
kinase still bound, per cent of control [31]: 85%
kinase still bound, per cent of control [32]: 94%
kinase still bound, per cent of control [33]: 100%
kinase still bound, per cent of control [34]: 96%
kinase still bound, per cent of control [35]: 61%
kinase still bound, per cent of control [36]: 80%
kinase still bound, per cent of control [37]: 78%
kinase still bound, per cent of control [38]: 100%
kinase still bound, per cent of control [39]: 100%
kinase still bound, per cent of control [40]: 100%
kinase still bound, per cent of control [41]: 95%
SMILES: COc1ccc(CNC(=O)Nc2ncc([N+](=O)[O-])s2)cc1
